Test results published in US20240327929A1, “DOSAGE REGIMEN FOR ADMINISTRATION OF BELZUTIFAN” (MERCK SHARP & DOHME LLC, priority 2021, published 2024).
Values joined by “and” are separate entries in the source; they are usually repeats but may differ in a detail not shown here. Equal values may be shown once.

How the values were obtained:
[1] = Effect of dose and formulation on MK-6482 exposure (pooled Phase 1 mixed effects model); conditions: human, in vivo
From the text: There are many important differences in patient composition between the trials. To note, MK-6482-001 was a first-in-human dose finding trial studying patients with advanced solid tumors or renal cell carcinoma (RCC), while MK-6482-002,-006, and-007 were PK trials conducted with (predominantly female) healthy volunteers. In addition, study-007 enrolled Japanese subjects based on specific CYP2C19 phenotypes; all other studies enrolled subjects without genotype-based selection criteria. Finally, the protocols differed in terms of belzutifan formulation given to trial subjects: subjects in protocols 001 and 002 were given one formulation of belzutifan, study 006 compared that formulation and a new formulations, enrolling all subjects to receive both the formulations, and study 007 patients only received the new formulation of MK-6482.

UGT2B17 = molecular target: T1, UGT2B17 (Homo sapiens, UniProt O75795)
T1 sequence (O75795 24-530): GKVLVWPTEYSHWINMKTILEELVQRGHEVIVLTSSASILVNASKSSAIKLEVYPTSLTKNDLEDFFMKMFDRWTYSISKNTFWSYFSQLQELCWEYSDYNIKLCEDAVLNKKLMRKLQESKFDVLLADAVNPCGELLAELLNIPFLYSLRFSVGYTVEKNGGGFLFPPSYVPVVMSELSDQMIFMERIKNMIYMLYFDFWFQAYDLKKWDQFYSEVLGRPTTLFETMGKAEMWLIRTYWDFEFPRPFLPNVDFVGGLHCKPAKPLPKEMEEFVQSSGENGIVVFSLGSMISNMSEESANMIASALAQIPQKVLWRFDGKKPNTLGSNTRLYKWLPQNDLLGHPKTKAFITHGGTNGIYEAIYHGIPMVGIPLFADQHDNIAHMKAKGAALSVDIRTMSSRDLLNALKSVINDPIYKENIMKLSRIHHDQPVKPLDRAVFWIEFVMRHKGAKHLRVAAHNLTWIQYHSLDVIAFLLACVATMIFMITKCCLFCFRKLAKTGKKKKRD

[2] = cited from earlier work
[3] = Effect of body weight on MK-6482 exposure (pooled Phase 1 mixed effects model); conditions: for % Change in AUC (h*ng/mL) per 10 kg increase in body weight / % Change in Cmax (ng/mL) per 10 kg increase in body weight: model accounting for dose, formulation
Description: Linear mixed effect model analyses were performed on the natural log transformed PK parameters from the four pooled Phase 1 studies, separately for AUC and Cmax. The model contained fixed effects of natural log transformed dose, drug formulation (old or new), enzyme phenotype determined from genotype, relevant additional covariates, and a random subject effect. UGT2B17 phenotype was considered as a categorical variable with dummy encoding for each phenotype (intermediate metabolizers (IM), poor metabolizers (PM)) that differed from the extensive metabolizer (EM) category). Similarly, CYP2C19 metabolizer status was considered as a categorical variable with dummy encoding for each phenotype (PM, IM, rapid metabolizers (RM) and ultra-rapid metabolizers (UM)) that differed from the EM category. Relevant covariates were selected under the null hypothesis from the following: disease (healthy vs patient), body weight (in kg), age, gender, and dose-by-body weight and dose-by-formulation interactions. Final models used to generate tables in this Example include log (dose), formulation (old/new), body weight (kg), and enzyme phenotype as variables.
Between- and within-subject random effects were modeled via terms Si and ϵij, respectively, and assumed to be normally distributed.
Presence of an interactive effect was tested using an F-test with Kenward-Roger denominator degrees of freedom for the fixed effects. As a descriptive measure, the effect of body weight on exposure was also calculated separately within each UGT2B17 group using a mixed effects model accounting for log(dose) and formulation only. […] For the overall estimate, model (1) was used.

UGT2B17 and CYP2C19 = assay: Pharmacogenetic analysis of pooled Phase 1 PK: combined UGT2B17 and CYP2C19 phenotype vs double EM; conditions: model-based estimates
Description: Linear mixed effect model analyses were performed on the natural log transformed PK parameters from the four pooled Phase 1 studies, separately for AUC and Cmax. The model contained fixed effects of natural log transformed dose, drug formulation (old or new), enzyme phenotype determined from genotype, relevant additional covariates, and a random subject effect. UGT2B17 phenotype was considered as a categorical variable with dummy encoding for each phenotype (intermediate metabolizers (IM), poor metabolizers (PM)) that differed from the extensive metabolizer (EM) category). […]
To understand the differences in exposure between different genetic phenotype categories, least square means were computed for each UGT2B17 phenotype, each CYP2C19 phenotype, and for each combination UGT2B17/CYP2C19 phenotype. […] Similar analyses were also conducted separately within each UGT2B17 phenotype group to quantify the difference in exposure between CYP2C19 phenotype groups separately for each UGT2B17 phenotype. […]
The Phase 1 PK endpoints analyzed were AUCo->following single dose (SD) administration and steady state AUCo-, following multiple dose (MD) administration pooled, as well as Cmax following SD administration and steady state Cmax following MD administration pooled. […]

[4] = dose-escalation cohort, doses up to 160 mg once daily

SMILES: CS(=O)(=O)c1ccc(Oc2cc(F)cc(C#N)c2)c2c1[C@H](O)[C@H](F)[C@@H]2F [MK-6482, 3-[(1S,2S, 3R)-2,3-Difluoro-1-hydroxy-7-methylsulfonyl-indan-4-yl]oxy-5-fluoro-benzonitrile]
- effect of dose on Cmax, estimated coefficient of log(dose) [1]: 0.90
- metabolism (primary pathway and enzyme) (UGT2B17): metabolized primarily by glucuronidation, catalyzed predominantly by UDP Glucuronosyltransferase Family 2 Member B17 (UGT2B17)
- dose-limiting toxicities [2, 4]: no dose-limiting toxicities occurred
- maximum tolerated dose [2, 4]: not reached
- most common adverse events ([2]; heavily pre-treated patients with ccRCC): anemia and hypoxia
- expected difference in exposure between extremes of body weight ([3]; 41 kg vs 164 kg, independent of enzyme phenotype): ~2.9 fold
- % Change in AUC (h*ng/mL) per 10 kg increase in body weight ([3]; UGT2B17 EM): −10.9%
- % Change in Cmax (ng/mL) per 10 kg increase in body weight ([3]; UGT2B17 EM): −6.4%
- % Change in AUC (h*ng/mL) per 10 kg increase in body weight ([3]; UGT2B17 IM): −8.3%
- % Change in Cmax (ng/mL) per 10 kg increase in body weight ([3]; UGT2B17 IM): −7.8%
- % Change in AUC (h*ng/mL) per 10 kg increase in body weight ([3]; UGT2B17 PM): −15.5%
- % Change in Cmax (ng/mL) per 10 kg increase in body weight ([3]; UGT2B17 PM): −4.5%
- decrease in AUC for every 10 kg increase in body weight ([3]; overall, all subjects): 9.2 (6.5, 12.0) % and 9.2%
- decrease in Cmax for every 10 kg increase in body weight ([3]; overall, all subjects): 7.0 (4.5, 9.5) %
- exposure of PMs of both enzymes relative to EMs of both enzymes (UGT2B17 and CYP2C19): over four-fold
